Patent US20250250582A1, “Plant Cells and Plants Modified to Increase Herbicide Resistance and Stress Tolerance and Methods of Using the Same” (The Board of Trustees of the University of Arkansas, priority 2018, published 2025)

Test system: susceptible E. colona (ECO-S)
Assay: Herbicide resistance profile of ECO-S
Format: in vivo, Echinochloa colona
Description: Beginning in 2010, through the 2016 cropping cycle, Echinochloa spp. from throughout the rice producing counties of Arkansas, USA, located along the Mississippi River were sampled for a survey of the current status of herbicide resistance. Seeds were bulk sampled from plants that had matured in rice and soybean production fields, which had survived at least one herbicide application, were collected and sent to the University of Arkansas Altheimer Laboratory in Fayetteville for characterization and evaluation of herbicide resistance to common rice herbicides. […] From this screening program, two populations of E. colona were selected for use in this experiment. […] To establish inbred and homozygous accessions for the experiment, a single plant, verified as resistant/susceptible of ECO-R and ECO-S were grown in isolation to produce seed for further experiments.
Accession source and population profiling. From 2010 to 2016, the University of Arkansas weed physiology group has been collecting putative herbicide-resistant Echinochloa populations from rice production fields throughout the state of Arkansas. […] Collections took place in the late summer to early fall prior to rice harvest; these accessions were bulk sampled by in-field location and farm, with field histories collected when possible. […]

## CCC(=O)Nc1ccc(Cl)c(Cl)c1 [propanil]
ECO-S (Example 1)
  tolerance observed: approximately twice
ECO-S (Example 2)
  tolerance observed: ~3 × field dose
